# Article PMC11571108, “Targeting PfCLK3 with Covalent Inhibitors: A Novel Strategy for Malaria Treatment” (Journal of Medicinal Chemistry, 2024)
# What was measured:
# [1] = biological target: ALK(h) (Homo sapiens, UniProt Q9UM73); experiment: biochemical
# [2] = biological target: DRAK1(h) (Homo sapiens, UniProt Q9UEE5); experiment: biochemical
# [3] = biological target: CDK7/cyclinH/MAT1(h) (Homo sapiens, UniProt P50613); experiment: biochemical
# [4] = biological target: CDK2/cyclinA(h) (Homo sapiens, UniProt P24941); experiment: biochemical
# [5] = biological target: Abl(h) (Homo sapiens, UniProt P00519); experiment: biochemical
# [6] = biological target: CaMKI(h) (Homo sapiens, UniProt Q14012); experiment: biochemical
# [7] = biological target: CHK1(h) (Homo sapiens, UniProt O14757); experiment: biochemical
# Chain of CHK1(h) (O14757 whole entry): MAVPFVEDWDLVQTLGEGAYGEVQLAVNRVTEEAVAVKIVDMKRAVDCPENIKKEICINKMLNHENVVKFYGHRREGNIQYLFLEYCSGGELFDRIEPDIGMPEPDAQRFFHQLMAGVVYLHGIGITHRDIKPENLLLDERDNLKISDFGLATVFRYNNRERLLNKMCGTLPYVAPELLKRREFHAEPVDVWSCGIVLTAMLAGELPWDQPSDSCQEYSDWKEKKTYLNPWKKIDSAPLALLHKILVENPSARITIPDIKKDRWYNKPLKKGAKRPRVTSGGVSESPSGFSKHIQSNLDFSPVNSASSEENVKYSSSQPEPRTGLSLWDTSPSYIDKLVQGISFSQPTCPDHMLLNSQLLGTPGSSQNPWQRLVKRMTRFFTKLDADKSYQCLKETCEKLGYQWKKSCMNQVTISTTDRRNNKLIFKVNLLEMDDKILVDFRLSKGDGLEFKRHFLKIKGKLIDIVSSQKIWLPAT
# [8] = biological target: CDK9/cyclin T1(h) (Homo sapiens, UniProt P50750); experiment: biochemical
# [9] = biological target: T1, recombinant full-length PfCLK3 (Plasmodium falciparum, UniProt Q8IIL5); experiment: TR-FRET protein kinase assay; assay type: biochemical; conditions: Apparent pIC50 (PfCLK3), 15 min preincubation, 2 h incubation
# T1 sequence (Q8IIL5 1-699): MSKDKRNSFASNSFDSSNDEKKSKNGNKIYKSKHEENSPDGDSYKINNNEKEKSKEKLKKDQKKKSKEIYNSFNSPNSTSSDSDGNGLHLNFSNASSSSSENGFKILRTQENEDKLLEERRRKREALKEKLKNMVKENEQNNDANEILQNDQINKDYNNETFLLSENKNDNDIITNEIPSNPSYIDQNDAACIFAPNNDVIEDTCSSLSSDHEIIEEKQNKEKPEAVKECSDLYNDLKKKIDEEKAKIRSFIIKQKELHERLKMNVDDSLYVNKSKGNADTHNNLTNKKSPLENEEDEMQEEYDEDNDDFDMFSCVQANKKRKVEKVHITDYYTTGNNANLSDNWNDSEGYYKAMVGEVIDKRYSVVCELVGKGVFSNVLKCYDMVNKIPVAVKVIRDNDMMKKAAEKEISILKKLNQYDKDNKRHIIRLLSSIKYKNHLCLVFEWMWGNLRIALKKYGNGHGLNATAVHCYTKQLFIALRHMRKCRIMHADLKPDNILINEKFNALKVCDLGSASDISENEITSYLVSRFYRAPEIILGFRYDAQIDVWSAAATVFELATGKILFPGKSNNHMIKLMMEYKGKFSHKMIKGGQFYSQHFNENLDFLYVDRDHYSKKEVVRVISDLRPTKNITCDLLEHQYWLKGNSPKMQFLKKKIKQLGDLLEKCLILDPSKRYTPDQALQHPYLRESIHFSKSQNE
# Experimental: To a black 384-well plate was added 2.5 μL of each concentration of inhibitor serially diluted 1 in 3, 11 times from a 40 μM (4×) top concentration normalized to 4% DMSO, and 5 μL of 50 nM (2×) recombinant PfCLK3. Both were dissolved in kinase buffer (50 mM HEPES 7.4, 1 mM EGTA, 1 mM MgCl2, 0.01% Tween, and 1 mM TCEP). […] 5 μL of detection mix (30 mM EDTA, 3 nM AntiMBP in 1× PerkinElmer Lance detection buffer) was added to quench the kinase reaction, and plates were incubated at room temperature in the dark for 1 h.
# [10] = biological target: CK2α2(h) (Homo sapiens, UniProt P19784); experiment: biochemical
# [11] = biological target: ASK1(h) (Homo sapiens, UniProt Q99683); experiment: biochemical
# [12] = biological target: c-RAF(h) (Homo sapiens, UniProt P04049); experiment: biochemical
# Chain of c-RAF(h) (P04049 whole entry): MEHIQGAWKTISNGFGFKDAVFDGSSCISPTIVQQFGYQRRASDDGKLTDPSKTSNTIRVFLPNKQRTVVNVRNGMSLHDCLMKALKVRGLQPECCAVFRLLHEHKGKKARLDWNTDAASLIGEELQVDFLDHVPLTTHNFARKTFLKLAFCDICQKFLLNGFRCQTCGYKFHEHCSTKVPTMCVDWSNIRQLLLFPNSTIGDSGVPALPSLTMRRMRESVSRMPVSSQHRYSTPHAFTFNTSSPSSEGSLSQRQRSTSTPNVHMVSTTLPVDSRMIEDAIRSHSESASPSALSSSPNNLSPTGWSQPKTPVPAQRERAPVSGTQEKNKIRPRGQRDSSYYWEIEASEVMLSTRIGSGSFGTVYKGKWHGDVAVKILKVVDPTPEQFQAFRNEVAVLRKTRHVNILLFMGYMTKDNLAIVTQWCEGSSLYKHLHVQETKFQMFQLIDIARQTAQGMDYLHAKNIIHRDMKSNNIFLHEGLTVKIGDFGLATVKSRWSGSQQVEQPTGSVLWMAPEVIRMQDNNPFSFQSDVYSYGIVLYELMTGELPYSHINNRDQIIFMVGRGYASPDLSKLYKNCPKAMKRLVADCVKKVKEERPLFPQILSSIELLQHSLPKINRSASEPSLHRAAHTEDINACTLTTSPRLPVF
# [13] = biological target: Aurora-A(h) (Homo sapiens, UniProt O14965); experiment: biochemical
# Chain of Aurora-A(h) (O14965 whole entry): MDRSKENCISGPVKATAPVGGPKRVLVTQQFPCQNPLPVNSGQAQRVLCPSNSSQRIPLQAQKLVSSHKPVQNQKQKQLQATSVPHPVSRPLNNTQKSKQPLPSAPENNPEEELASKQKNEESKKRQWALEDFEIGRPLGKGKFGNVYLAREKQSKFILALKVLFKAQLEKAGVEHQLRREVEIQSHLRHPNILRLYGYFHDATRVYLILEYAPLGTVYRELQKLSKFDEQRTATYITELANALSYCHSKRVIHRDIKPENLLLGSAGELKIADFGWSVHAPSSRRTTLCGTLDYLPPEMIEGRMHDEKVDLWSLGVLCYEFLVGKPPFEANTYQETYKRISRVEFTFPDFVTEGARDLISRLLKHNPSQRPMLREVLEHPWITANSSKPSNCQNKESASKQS
# [14] = biological target: PKBα(h) (Homo sapiens, UniProt P31749); experiment: biochemical
# Experimental: (§1) Compounds were evaluated using Eurofins Discovery’s KinaseProfiler Diversity Panel of 58 representative kinases. KinaseProfiler is a radiometric assay using [γ-^33P]-ATP to measure the phosphorylation of individual kinase substrates. A representative protocol for Abl is given below. Further details can be found by visiting the Eurofins Discovery Web site.
# (§2) The reaction is initiated by the addition of the Mg/ATP mix. After incubation for 40 min at room temperature, the reaction is stopped by the addition of phosphoric acid to a concentration of 0.5%.
# [15] = biological target: MLK1(h) (Homo sapiens, UniProt P80192); experiment: biochemical
# Experimental: as §1, §2
# [16] = biological target: JAK2(h) (Homo sapiens, UniProt O60674); experiment: biochemical
# Experimental: as §1, §2
# [17] = biological target: Lyn(h) (Homo sapiens, UniProt P07948); experiment: biochemical
# Chain of Lyn(h) (P07948 whole entry): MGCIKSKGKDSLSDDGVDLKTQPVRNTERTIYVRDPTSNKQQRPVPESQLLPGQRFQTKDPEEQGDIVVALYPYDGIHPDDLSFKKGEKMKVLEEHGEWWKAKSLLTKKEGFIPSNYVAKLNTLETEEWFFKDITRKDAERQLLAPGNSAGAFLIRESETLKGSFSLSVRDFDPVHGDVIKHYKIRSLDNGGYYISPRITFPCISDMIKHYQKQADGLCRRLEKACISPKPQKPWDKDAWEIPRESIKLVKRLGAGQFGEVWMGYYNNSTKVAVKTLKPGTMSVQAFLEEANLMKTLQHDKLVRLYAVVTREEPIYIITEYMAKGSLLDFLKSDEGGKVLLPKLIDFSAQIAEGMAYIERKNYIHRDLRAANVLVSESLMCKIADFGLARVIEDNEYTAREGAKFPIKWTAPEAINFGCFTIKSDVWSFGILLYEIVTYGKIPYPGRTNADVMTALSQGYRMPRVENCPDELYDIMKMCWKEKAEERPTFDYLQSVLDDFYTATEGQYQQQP
# Experimental: as §1, §2
# [18] = biological target: EphA5(h) (Homo sapiens, UniProt P54756); experiment: biochemical
# Chain of EphA5(h) (P54756 25-1037): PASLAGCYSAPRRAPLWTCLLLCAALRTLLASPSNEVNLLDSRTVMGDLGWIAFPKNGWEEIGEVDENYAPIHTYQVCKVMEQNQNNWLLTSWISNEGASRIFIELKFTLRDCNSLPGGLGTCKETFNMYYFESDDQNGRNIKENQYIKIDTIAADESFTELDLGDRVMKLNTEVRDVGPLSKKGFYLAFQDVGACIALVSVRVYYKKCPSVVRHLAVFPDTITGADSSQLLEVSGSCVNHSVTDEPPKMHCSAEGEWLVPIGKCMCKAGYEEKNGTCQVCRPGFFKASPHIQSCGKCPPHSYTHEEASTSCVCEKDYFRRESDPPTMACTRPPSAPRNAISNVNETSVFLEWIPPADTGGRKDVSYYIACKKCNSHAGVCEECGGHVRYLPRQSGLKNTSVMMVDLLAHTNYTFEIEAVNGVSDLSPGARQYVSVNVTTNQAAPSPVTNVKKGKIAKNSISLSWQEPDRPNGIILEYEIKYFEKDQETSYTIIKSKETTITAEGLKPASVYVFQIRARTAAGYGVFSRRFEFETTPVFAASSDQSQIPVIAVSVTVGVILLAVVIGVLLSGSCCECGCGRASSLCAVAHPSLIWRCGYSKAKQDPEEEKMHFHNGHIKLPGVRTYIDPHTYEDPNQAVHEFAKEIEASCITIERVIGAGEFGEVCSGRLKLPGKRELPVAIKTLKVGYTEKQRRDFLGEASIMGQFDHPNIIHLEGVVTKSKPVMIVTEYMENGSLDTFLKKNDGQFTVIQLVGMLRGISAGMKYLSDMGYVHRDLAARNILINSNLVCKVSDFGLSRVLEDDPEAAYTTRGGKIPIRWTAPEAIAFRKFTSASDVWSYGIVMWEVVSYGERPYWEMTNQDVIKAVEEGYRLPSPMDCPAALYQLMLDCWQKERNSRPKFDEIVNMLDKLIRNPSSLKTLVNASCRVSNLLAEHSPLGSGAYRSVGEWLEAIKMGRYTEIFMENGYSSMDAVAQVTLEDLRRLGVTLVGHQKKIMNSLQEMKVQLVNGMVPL
# Experimental: as §1, §2
# [19] = biological target: KDR(h) (Homo sapiens, UniProt P35968); experiment: biochemical
# Experimental: as §1, §2
# [20] = biological target: p70S6K(h) (Homo sapiens, UniProt P23443); experiment: biochemical
# Experimental: as §1, §2
# [21] = biological target: MSK2(h) (Homo sapiens, UniProt O75676); experiment: biochemical
# Experimental: as §1, §2
# [22] = biological target: Pim-1(h) (Homo sapiens, UniProt P11309); experiment: biochemical
# Chain of Pim-1(h) (P11309 whole entry): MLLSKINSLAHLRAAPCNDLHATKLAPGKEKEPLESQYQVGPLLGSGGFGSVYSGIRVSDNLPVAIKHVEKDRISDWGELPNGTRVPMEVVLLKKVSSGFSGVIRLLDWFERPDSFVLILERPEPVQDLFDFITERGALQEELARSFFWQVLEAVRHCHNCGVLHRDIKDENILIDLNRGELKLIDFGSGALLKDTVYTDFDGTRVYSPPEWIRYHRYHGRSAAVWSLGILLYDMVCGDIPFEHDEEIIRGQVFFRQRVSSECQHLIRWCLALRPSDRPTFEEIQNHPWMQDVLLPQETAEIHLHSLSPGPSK
# Experimental: as §1, §2
# [23] = biological target: PAK2(h) (Homo sapiens, UniProt Q13177); experiment: biochemical
# Experimental: as §1, §2
# [24] = biological target: IGF-1R(h) (Homo sapiens, UniProt P08069); experiment: biochemical
# Experimental: as §1, §2
# [25] = biological target: CDK6/cyclinD3(h) (Homo sapiens, UniProt Q00534); experiment: biochemical
# Chain of ALK(h) (Q9UM73 19-1620): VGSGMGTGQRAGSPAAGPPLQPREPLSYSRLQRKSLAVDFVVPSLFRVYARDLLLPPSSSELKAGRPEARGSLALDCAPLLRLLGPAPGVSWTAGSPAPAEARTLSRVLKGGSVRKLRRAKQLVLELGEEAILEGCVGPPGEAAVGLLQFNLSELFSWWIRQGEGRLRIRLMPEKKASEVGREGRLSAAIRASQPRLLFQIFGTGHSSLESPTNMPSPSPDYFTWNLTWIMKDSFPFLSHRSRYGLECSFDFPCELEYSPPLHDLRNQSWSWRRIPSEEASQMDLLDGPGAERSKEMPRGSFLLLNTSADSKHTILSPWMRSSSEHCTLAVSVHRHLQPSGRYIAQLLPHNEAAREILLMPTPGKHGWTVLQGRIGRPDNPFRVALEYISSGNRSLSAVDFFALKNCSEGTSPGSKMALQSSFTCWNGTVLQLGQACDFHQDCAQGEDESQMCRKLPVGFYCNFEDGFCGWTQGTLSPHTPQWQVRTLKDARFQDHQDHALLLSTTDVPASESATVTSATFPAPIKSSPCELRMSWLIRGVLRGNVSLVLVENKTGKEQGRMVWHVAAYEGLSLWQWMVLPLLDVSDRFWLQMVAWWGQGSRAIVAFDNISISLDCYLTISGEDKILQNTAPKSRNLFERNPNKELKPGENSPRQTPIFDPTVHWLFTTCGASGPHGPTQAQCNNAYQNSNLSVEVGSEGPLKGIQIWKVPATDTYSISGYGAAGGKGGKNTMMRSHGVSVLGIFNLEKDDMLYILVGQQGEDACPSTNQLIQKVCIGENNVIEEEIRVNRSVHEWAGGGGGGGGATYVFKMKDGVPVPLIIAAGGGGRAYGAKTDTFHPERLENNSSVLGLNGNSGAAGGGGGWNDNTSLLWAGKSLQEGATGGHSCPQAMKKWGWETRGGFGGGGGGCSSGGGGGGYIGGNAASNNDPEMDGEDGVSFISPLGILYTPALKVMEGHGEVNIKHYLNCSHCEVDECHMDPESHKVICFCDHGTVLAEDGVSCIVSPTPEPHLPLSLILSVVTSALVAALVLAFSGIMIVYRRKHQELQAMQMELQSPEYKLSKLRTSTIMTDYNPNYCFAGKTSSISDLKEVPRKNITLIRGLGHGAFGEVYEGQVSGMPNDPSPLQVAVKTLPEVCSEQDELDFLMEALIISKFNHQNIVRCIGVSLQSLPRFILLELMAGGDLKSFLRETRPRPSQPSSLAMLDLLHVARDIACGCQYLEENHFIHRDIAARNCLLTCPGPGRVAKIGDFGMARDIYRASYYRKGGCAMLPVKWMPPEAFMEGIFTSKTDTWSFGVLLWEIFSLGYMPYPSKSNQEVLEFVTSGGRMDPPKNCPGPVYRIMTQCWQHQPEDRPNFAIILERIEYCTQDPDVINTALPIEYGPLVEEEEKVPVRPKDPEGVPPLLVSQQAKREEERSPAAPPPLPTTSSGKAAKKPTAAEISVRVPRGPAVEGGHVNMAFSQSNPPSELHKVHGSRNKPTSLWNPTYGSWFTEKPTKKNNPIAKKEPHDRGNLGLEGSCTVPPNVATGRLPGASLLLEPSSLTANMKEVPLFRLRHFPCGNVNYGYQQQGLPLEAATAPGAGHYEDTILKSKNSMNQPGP
compound,measurement,setting,value
"CCN(CC)Cc1ccc(OC)c(-c2cc3c(-c4ccc(C(=O)O)c(C(C)C)c4)ccnc3[nH]2)c1 [Compound 1, TCMDC-135051]",remaining activity at 1 µM,[1],30%
same,remaining activity at 1 µM,[2],83%
same,remaining activity at 1 µM,[3],102%
same,remaining activity at 1 µM,[4],30%
same,remaining activity at 1 µM,[5],68%
same,remaining activity at 1 µM,[6],100%
same,remaining activity at 1 µM,[7],101%
same,remaining activity at 1 µM,[8],6%
same,IC50,[9]; [ATP] = 500 μM,87.1 nM
same,IC50,[9]; [ATP] = 3 mM,447 nM
same,IC50,[9]; [ATP] = Km (5 μM),7.76 nM
same,remaining activity at 1 µM,[10],39%
same,remaining activity at 1 µM,[11],92%
same,remaining activity at 1 µM,[12],106%
same,remaining activity at 1 µM,[13],11%
same,remaining activity at 1 µM,[14],106%
same,remaining activity at 1 µM,[15],92%
same,remaining activity at 1 µM,[16],20%
same,remaining activity at 1 µM,[17],28%
same,remaining activity at 1 µM,[18],97%
same,remaining activity at 1 µM,[19],61%
same,remaining activity at 1 µM,[20],100%
same,remaining activity at 1 µM,[21],100%
same,remaining activity at 1 µM,[22],101%
same,remaining activity at 1 µM,[23],110%
same,remaining activity at 1 µM,[24],94%
same,remaining activity at 1 µM,[25],82%
